Experimental data taken from PubChem BioAssay (NCI).
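Five compound concentrations were applied to cells in 96-well plates for 48 hours; endpoints were derived by simple linear interpolation of the resulting dose-response curve. GI50 = concentration required for 50% inhibition of growth. The concentration for full growth arrest is given as TGI.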

Tests used:
Assay in all cases: DTP human tumour cell line panel, 48 h
[1] = test system: SNB-75 CNS
[2] = test system: EKVX NSCLC
[3] = test system: K-562 leukemia
[4] = test system: HS 578T breast
[5] = test system: SF-539 CNS
[6] = test system: NCI-H226 lung
[7] = test system: HCC-2998 colon
[8] = test system: SF-268 CNS
[9] = test system: CAKI-1 renal
[10] = test system: TK-10 renal

SMILES | GI50 [1] [µM] | TGI [1] [µM] | GI50 [2] [µM] | TGI [2] [µM] | GI50 [3] [µM] | TGI [3] [µM] | GI50 [4] [µM] | TGI [4] [µM] | GI50 [5] [µM] | TGI [5] [µM] | GI50 [6] [µM] | TGI [6] [µM] | GI50 [7] [µM] | TGI [7] [µM] | GI50 [8] [µM] | TGI [8] [µM] | GI50 [9] [µM] | TGI [9] [µM] | GI50 [10] [µM] | TGI [10] [µM]
C=CC(=O)N1CCC[C@@H](n2nc(-c3ccc(Oc4ccccc4)cc3)c3c(N)ncnc32)C1 | > 5.6 | > 10 | 0.396 | > 10 | > 10 | > 10 | > 10 | > 10 | > 6.36 | > 10 | > 6.06 | > 10 | > 10 | > 10 | > 4.98 | > 10 | > 6.12 | > 10 | 0.0409 | 3.14
Fc1ccc(Nc2nc3nonc3nc2Nc2ccc(I)cc2)cc1 | 0.263 | 11.7 | 0.273 | 10.1 | 0.181 | 11 | 0.617 | 13.6 | 0.275 | 2.58 | 0.319 | 1.94 | 0.425 | 9.24 | 0.367 | 17.9 | 0.251 | 14.7 | 0.315 | 2.18
COc1cc2c(cc1[N+](=O)[O-])C(=O)C(Br)(Br)CCC2 | – | 25.8 | – | 6.25 | – | 6.27 | – | 23.2 | – | 3.87 | – | 10.7 | – | 32.5 | – | 15.6 | – | 7.8 | – | 9.72
C[C@]12CC[C@@H]3c4ccc(OC(=O)N(CCCl)CCCl)cc4CC[C@H]3[C@@H]1CC[C@@H]2OP(=O)(O)O | 29.2 | > 66.7 | 33.2 | > 100 | > 73.5 | > 100 | 26.7 | > 76.9 | 22.3 | > 58.1 | 43.7 | > 100 | > 74.4 | > 100 | > 75.5 | > 100 | > 77.1 | > 100 | > 38.3 | > 100
COC(=O)[C@]12CC[C@@H](C)[C@H](C)[C@@H]1C1=CC[C@@H]3[C@@](C)(CC#N)C4=C(C[C@@]3(C)[C@]1(C)CC2)OC[C@]4(C)C=O | 3.22 | > 100 | 4.32 | 48.7 | 3.22 | > 100 | 6 | 52.3 | 2.96 | 16.6 | 8.51 | 43.7 | 5.81 | 33 | 4.38 | > 100 | 6.32 | > 100 | 8.07 | > 100
